Numbered stars: 1 amine (or outer) side, 2 acyl side, 3 side chain; on linkers, the order of the positions; unused ones are H or OH. Square brackets hold non-standard residues; d marks the D form. Peptide text beside a SMILES is read from it. * marks the point of attachment. ξ: configuration not given here. X2 = C#CCC(OC(=O)*)c1ccc(O[C@@H]2O[C@H](CO)[C@H](O)[C@H](O)[C@H]2O)c2cc(C(=O)O)oc12; X3 = C#CCC(OC(=O)*)c1ccc(O[C@@H]2O[C@H](CO)[C@H](O)[C@H](O)[C@H]2O)c2cc(C(=O)O)sc12; X1 = O=C(O)CCc1cc2c(O[C@@H]3O[C@H](CO)[C@H](O)[C@H](O)[C@H]3O)ccc(COC(=O)*)c2s1; Dil(5ξ) = CCC(C)[C@@H]([C@@H](CC(=O)[*:2])OC)N(C)[*:1]; Dolaproine = CO[C@@H]([C@@H]1CCCN1)[C@@H](C)C(=O)O; NMeV = CN[C@H](C(=O)O)C(C)C; ξF = NC(Cc1ccccc1)C(=O)O

Series [1] can be described thus: Chemical stability in PBS buffer solution (pH 7.4). The settings on record: PBS buffer solution pH 7.4, 37° C., HPLC; read-out: Chemical stability t1/2. The class given is physicochemical. As for the experimental part:
The compounds of the present invention (A-5, A-8, A-9, A-11, A-12, A-14, A-15, A-16, A-19, A-23, A-24, A-35 and A-36) were each dissolved in DMSO to a concentration of 10 mM and then mixed with a PBS buffer solution (pH 7.4) to prepare as a solution having a concentration of 500 μM (5% DMSO). MPS, used as a standard substance, was also prepared as a solution having a concentration of 500 μM in a PBS buffer solution. 420 μL of a PBS buffer solution and 140 μL of each of 500 μM compounds of the present invention and MPS were mixed to prepare a total of 700 μL of reaction solution. The reaction of the mixed solution was initiated in a constant temperature incubator at 37° C. The reaction solution was aliquoted in an amount of 70 μL at 0 minutes before the reaction and at certain times after the reaction, and the remaining compounds of the present invention or MPS or the liberated MMAF were quantitatively analyzed using the HPLC method. […] In addition, the remaining amount of Compound A-19 in a PBS buffer solution (pH 7.4) according to the incubation time is shown in FIG. 4.

The nature of series [2]: Mouse plasma stability. Format: in vitro ADME. Conditions: Method 1 (mouse plasma), 37° C., read-out: Plasma stability t1/2. As for the experimental part:
Method 1: Mouse Plasma Stability
(§1) The compounds of the present invention (A-5, A-9, A-14, A-19, A-35, A-36) and MPS, used as a standard substance, were each dissolved in DMSO and a PBS buffer solution to a concentration of 30 mM, and then mixed in mouse plasma (Biochemed, 029-APSC-PMG) to a final concentration of 300 μM (final 1.0% DMSO) and 600 μM of the compounds and MPS, respectively. The reaction of the mixed solution in plasma was initiated in a constant temperature incubator at 37° C. Before the reaction and on certain days after the reaction, the above samples were aliquoted in an amount of 100 μL, and 200 μL of acetonitrile (ACN, Sigma, SA-271004-1L) was added to terminate the reaction, mixed, and then vortexed for about 1 minute, and then centrifuged (Beckman, B30150) at 4° C. for 15 minutes at 14,000 rpm to precipitate plasma proteins. Each supernatant obtained by centrifugation was collected and quantitatively analyzed using the HPLC method.
(§2) The results of measuring the plasma half-life of the compounds of the present invention using Methods 1 to 4 above are shown in Table 3.

The nature of series [3]: Human plasma stability. The class given is in vitro ADME. Conditions: Method 2 (human plasma), 37° C., read-out: Plasma stability t1/2. The method, then:
Method 2: Human Plasma Stability
as §1, with “(A-8,” for “(A-5,”, “human” for “mouse”, “752PR—SC-PMG)” for “029-APSC-PMG)”, “ACN” for “acetonitrile (ACN, Sigma, SA-271004-1L)”, “centrifuged” for “centrifuged (Beckman, B30150)”
as §2

Series [4] in a line: Rat plasma stability. The class given is in vitro ADME. The settings on record: Method 3 (rat plasma), 37° C., read-out: Plasma stability t1/2. The method, then:
Method 3: Rat Plasma Stability
as §1, with “(A-19,” for “(A-5, A-9, A-14, A-19, A-35,”, “rat” for “mouse”, “031-APSC-PMG)” for “029-APSC-PMG)”, “ACN” for “acetonitrile (ACN, Sigma, SA-271004-1L)”, “centrifuged” for “centrifuged (Beckman, B30150)”
as §2

Series [5] can be described thus: Beagle dog plasma stability. The class given is in vitro ADME. The settings on record: Method 4 (beagle dog plasma), 37° C., read-out: Plasma stability t1/2. As for the experimental part:
Method 4: Beagle Dog Plasma Stability
as §1, with “(A-19,” for “(A-5, A-9, A-14, A-19, A-35,”, “beagle dog” for “mouse”, “014-APSC-PMG)” for “029-APSC-PMG)”, “ACN” for “acetonitrile (ACN, Sigma, SA-271004-1L)”, “centrifuged” for “centrifuged (Beckman, B30150)”
as §2

In the case of `CCC(C)[C@@H]([C@@H](CC(=O)N1CCC[C@H]1[C@H](OC)[C@@H](C)C(=O)NC(Cc1ccccc1)C(=O)O)OC)N(C)C(=O)[C@@H](NC(=O)[C@H](C(C)C)N(C)C(=O)OCc1ccc(O[C@@H]2O[C@H](CO)[C@H](O)[C@H](O)[C@H]2O)c2cc(CCC(=O)O)sc12)C(C)C` (some centres unmarked) [Compound A-5] (X1-[NMeV]V[Dil(5ξ)][Dolaproine][ξF]-OH), the half-life at 100 µM in series [1] is greater than 168 h. Also, the half-life at 300 µM in series [2] is greater than 168 h.

With `CCC(C)[C@@H]([C@@H](CC(=O)N1CCC[C@H]1[C@H](OC)[C@@H](C)C(=O)NC(Cc1ccccc1)C(=O)O)OC)N(C)C(=O)[C@@H](NC(=O)[C@H](C(C)C)N(C)C(=O)OCc1ccc(O[C@@H]2O[C@H](CO)[C@H](O)[C@H](O)[C@H]2O)c2cc(Cn3cc(COCCOCCOCCOC)nn3)sc12)C(C)C` (some centres unmarked) [Compound A-8], in series [3], the half-life at 300 µM was greater than 168 h. For the same compound, in series [1], the half-life at 100 µM was greater than 168 h.

As for `C#CCC(OC(=O)N(C)[C@H](C(=O)N[C@H](C(=O)N(C)[C@@H](C(C)CC)[C@@H](CC(=O)N1CCC[C@H]1[C@H](OC)[C@@H](C)C(=O)NC(Cc1ccccc1)C(=O)O)OC)C(C)C)C(C)C)c1ccc(O[C@@H]2O[C@H](CO)[C@H](O)[C@H](O)[C@H]2O)c2cc(C(=O)O)sc12` (some centres unmarked) [Compound A-11] (X3-[NMeV]V[Dil(5ξ)][Dolaproine][ξF]-OH), in series [1], the half-life at 100 µM is greater than 168 h.

As to `C#CCC(OC(=O)N(C)[C@H](C(=O)N[C@H](C(=O)N(C)[C@@H](C(C)CC)[C@@H](CC(=O)N1CCC[C@H]1[C@H](OC)[C@@H](C)C(=O)NC(Cc1ccccc1)C(=O)O)OC)C(C)C)C(C)C)c1ccc(O[C@@H]2O[C@H](CO)[C@H](O)[C@H](O)[C@H]2O)c2cc(CCC(=O)O)sc12` (some centres unmarked) [Compound A-12], the half-life at 100 µM in series [1] is greater than 168 h.

On to `C#CCC(OC(=O)N(C)[C@H](C(=O)N[C@H](C(=O)N(C)[C@@H](C(C)CC)[C@@H](CC(=O)N1CCC[C@H]1[C@H](OC)[C@@H](C)C(=O)NC(Cc1ccccc1)C(=O)O)OC)C(C)C)C(C)C)c1ccc(O[C@@H]2O[C@H](CO)[C@H](O)[C@H](O)[C@H]2O)c2cc(C(=O)O)oc12` (some centres unmarked) [Compound A-15] (X2-[NMeV]V[Dil(5ξ)][Dolaproine][ξF]-OH), for which, in series [1], the half-life at 100 µM is greater than 168 h.

Take `C#CCC(OC(=O)N(C)[C@H](C(=O)N[C@H](C(=O)N(C)[C@@H](C(C)CC)[C@@H](CC(=O)N1CCC[C@H]1[C@H](OC)[C@@H](C)C(=O)NC(Cc1ccccc1)C(=O)O)OC)C(C)C)C(C)C)c1ccc(O[C@@H]2O[C@H](CO)[C@H](O)[C@H](O)[C@H]2O)c2cc(CCCC(=O)O)oc12` (some centres unmarked) [Compound A-16]: the half-life at 100 µM in series [1] was greater than 168 h.

Take `CCC(C)[C@@H]([C@@H](CC(=O)N1CCC[C@H]1[C@H](OC)[C@@H](C)C(=O)NC(Cc1ccccc1)C(=O)O)OC)N(C)C(=O)[C@@H](NC(=O)[C@H](C(C)C)N(C)C(=O)OCc1cc2c(O[C@@H]3O[C@H](CO)[C@H](O)[C@H](O)[C@H]3O)ccc(COC(=O)N(C)[C@H](C(=O)N[C@H](C(=O)N(C)[C@@H](C(C)CC)[C@@H](CC(=O)N3CCC[C@H]3[C@H](OC)[C@@H](C)C(=O)NC(Cc3ccccc3)C(=O)O)OC)C(C)C)C(C)C)c2o1)C(C)C` (some centres unmarked) [Compound A-24]: the half-life at 100 µM in series [1] was greater than 168 h.

As for `C#CCC(OC(=O)N(C)[C@H](C(=O)N[C@H](C(=O)N(C)[C@@H](C(C)CC)[C@@H](CC(=O)N1CCC[C@H]1[C@H](OC)[C@@H](C)C(=O)NC(Cc1ccccc1)C(=O)O)OC)C(C)C)C(C)C)c1ccc(O[C@@H]2O[C@H](CO)[C@H](O)[C@H](O)[C@H]2O)c2cc(COC(=O)N(C)[C@H](C(=O)N[C@H](C(=O)N(C)[C@@H](C(C)CC)[C@@H](CC(=O)N3CCC[C@H]3[C@H](OC)[C@@H](C)C(=O)NC(Cc3ccccc3)C(=O)O)OC)C(C)C)C(C)C)oc12` (some centres unmarked) [Compound A-35], the half-life at 300 µM in series [3] and in series [2] was greater than 168 h in each case. For the same compound, the half-life at 100 µM in series [1] is greater than 168 h.

Turning to `C#CCC(OC(=O)N(C)[C@H](C(=O)N[C@H](C(=O)N(C)[C@@H](C(C)CC)[C@@H](CC(=O)N1CCC[C@H]1[C@H](OC)[C@@H](C)C(=O)N[C@H](C)[C@@H](O)c1ccccc1)OC)C(C)C)C(C)C)c1ccc(O[C@@H]2O[C@H](C(=O)O)[C@H](O)[C@H](O)[C@H]2O)c2cc(CCC(=O)O)[se]c12` (some centres unmarked) [Compound A-36], the half-life at 300 µM in series [3], in series [4], in series [2] and in series [5] was greater than 168 h in each case. The half-life at 100 µM in series [1] was greater than 168 h.

The values are drawn from US20260248936A1, “NOVEL LINKER COMPOUND AND LIGAND-DRUG CONJUGATE THEREFOR” (priority 2022, published 2026).
